Reference: patent US20010016643A1, “Peptide derivatives” (priority 1995, published 2001)
Residues, ends and D or L forms follow the SMILES beside them.

Tests used:
[1] = Lipophilicity relative to human insulin (k′rel) by RP-HPLC; assay type: physicochemical; conditions: LiChrosorb RP18 HPLC, isocratic elution, sodium phosphate buffer pH 7.3/acetonitrile
Protocol: The lipophilicity of peptides and peptide derivatives relative to human insulin, k′rel, was measured on a LiChrosorb RP18 (5 μm, 4×250 mm) HPLC column by isocratic elution at […] using mixtures of A) 0.1 M sodium phosphate buffer, pH 7.3, containing 10% acetonitrile, and B) 50% acetonitrile in water as eluents. The elution was monitored by following the UV absorption of the eluate at 214 nm. Void time, t0, was found by injecting 0.1 mM sodium nitrate. Retention time for human insulin, tinsulin was adjusted to at least 2t0 by varying the ratio between the A and B solutions. k′rel=(tderivative−t0 /(tinsulin−t0).

[2] = Blood glucose in rabbits pretreated with Insulin Actrapid after SC injection of glucagon or derivative; assay type: in vivo
Protocol: The resulting solution was sterilized by filtration and transferred to a vial.
Blood was sampled at times: −60, 0, 15, 30, 60, 120, 180 and 240 min, and the glucose concentration determined by the hexokinase method.

Compound | lipophilicity relative to human insulin, k′rel [1] | blood glucose concentration ([2]; 15 min after SC injection) [mg glucose/100 ml] | blood glucose concentration ([2]; 30 min after SC injection) [mg glucose/100 ml] | blood glucose concentration ([2]; 60 min after SC injection) [mg glucose/100 ml] | blood glucose concentration ([2]; 120 min after SC injection) [mg glucose/100 ml] | blood glucose concentration ([2]; 180 min after SC injection) [mg glucose/100 ml] | blood glucose concentration ([2]; 240 min after SC injection) [mg glucose/100 ml] | blood glucose raising effect ([2]; SC, compared with glucagon) | blood glucose concentration ([2]; time 0 min (SC injection of test substance)) [mg glucose/100 ml] | blood glucose concentration ([2]; time −60 min (at Insulin Actrapid 2 IU/animal, before test substance)) [mg glucose/100 ml]
CCCC[C@H](NC=O)C(=O)N[C@@H](CC(C)C)C(=O)N[C@@H](Cc1ccccc1)C(=O)N[C@@H](CCCC)C(=O)N[C@@H](Cc1ccc(O)cc1)C(=O)N[C@@H](CCCCN)C(=O)O [For-Nle-Leu-Phe-Nle-Tyr-Lys-OH] (HELM PEPTIDE1{[O=C[*:2]].[Nle].L.F.[Nle].Y.K}$$$$V2.0) | 2.3 |  |  |  |  |  |  |  |  | 
Lys^30 (N^ε-decanoyl) glucagon [Example 6] |  | 79 | 93 | 114 | 112 | 116 | 110 | retained in Lys^30(Nε-decanoyl) glucagon but with a prolonged action | 51 | 94
